# Measured values as given in ChEMBL document CHEMBL4368904 (J Med Chem, 2019).
# pKi: −log10 of the molar value. Calls of active or inactive are those of the source. The rule behind the calls is not given here.
# Columns and labels:
# [1] = target: Sigma intracellular receptor 2 (Homo sapiens, UniProt Q5BJF2); test: Inhibition of sigma receptor 2 (unknown origin)
# [2] = target: Histamine H1 receptor (Homo sapiens, UniProt P35367); test: Inhibition of histamine H1 receptor (unknown origin)
# [3] = target: T1, Adenosine receptor A3 (Mus musculus, UniProt Q61618); test: Displacement of [125I]N6-(4-amino-3-iodobenzyl)adenosine-5-N-methyluronamide from mouse A3A adenosine receptor expressed in CHO cell membranes after 60 mins by scintillation proximity assay
# T1 sequence (Q61618 whole entry): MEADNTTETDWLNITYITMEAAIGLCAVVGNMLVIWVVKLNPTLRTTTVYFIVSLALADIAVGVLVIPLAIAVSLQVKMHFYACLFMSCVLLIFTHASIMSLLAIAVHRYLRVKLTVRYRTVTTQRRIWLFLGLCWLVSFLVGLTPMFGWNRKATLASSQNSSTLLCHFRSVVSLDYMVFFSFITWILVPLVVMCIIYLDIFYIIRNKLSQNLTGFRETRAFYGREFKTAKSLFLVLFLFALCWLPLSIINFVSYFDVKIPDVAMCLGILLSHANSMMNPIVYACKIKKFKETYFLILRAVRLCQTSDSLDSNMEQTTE
# [4] = target: T2, Adenosine receptor A2a (Homo sapiens, UniProt P29274); test: Displacement of [3H]2-[p-(2-carboxyethyl)phenylethylamino]-5-N-ethylcarboxamidoadenosine from human A2A adenosine receptor expressed in HEK293 cell membranes after 60 mins by scintillation proximity assay
# [5] = target: T3, Adenosine receptor A3 (Homo sapiens, UniProt P0DMS8); test: Displacement of [125I]N6-(4-amino-3-iodobenzyl)adenosine-5-N-methyluronamide from human A3A adenosine receptor expressed in CHO cell membranes after 60 mins by scintillation proximity assay
# T3 sequence (P0DMS8 whole entry): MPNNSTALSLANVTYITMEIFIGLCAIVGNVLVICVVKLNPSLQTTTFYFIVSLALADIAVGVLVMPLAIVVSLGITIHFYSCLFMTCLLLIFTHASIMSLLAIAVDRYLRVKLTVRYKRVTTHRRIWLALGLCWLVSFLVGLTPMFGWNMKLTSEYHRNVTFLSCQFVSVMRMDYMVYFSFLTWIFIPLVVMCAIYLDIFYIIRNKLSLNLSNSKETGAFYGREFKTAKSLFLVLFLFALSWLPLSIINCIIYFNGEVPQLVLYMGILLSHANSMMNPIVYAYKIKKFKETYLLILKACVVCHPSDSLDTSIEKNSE
# [6] = target: Sigma non-opioid intracellular receptor 1 (Homo sapiens, UniProt Q99720); test: Inhibition of sigma receptor 1 (unknown origin)
# [7] = target: 5-hydroxytryptamine receptor 7 (Homo sapiens, UniProt P34969); test: Inhibition of 5HT7R (unknown origin)
# [8] = test system: Mus musculus; test: Induction of hypothermia in C57BL/6J mouse assessed as body temperature at 1 mg/kg, ip measured at 60 mins post dose (reference value: 36.3 +/- 0.8 degC); format: functional
# [9] = target: T4, Adenosine receptor A1 (Mus musculus) (UniProt Q60612); test: Agonist activity at mouse A1A adenosine receptor at 10 uM after 60 mins by [35S]GTPgammaS binding assay relative to (2S,3S,4R,5R)-5-(6-amino-9H-purin-9-yl)-N-ethyl-3,4-dihydroxytetrahydrofuran-2-carboxamide; format: functional
# T4 sequence (whole entry): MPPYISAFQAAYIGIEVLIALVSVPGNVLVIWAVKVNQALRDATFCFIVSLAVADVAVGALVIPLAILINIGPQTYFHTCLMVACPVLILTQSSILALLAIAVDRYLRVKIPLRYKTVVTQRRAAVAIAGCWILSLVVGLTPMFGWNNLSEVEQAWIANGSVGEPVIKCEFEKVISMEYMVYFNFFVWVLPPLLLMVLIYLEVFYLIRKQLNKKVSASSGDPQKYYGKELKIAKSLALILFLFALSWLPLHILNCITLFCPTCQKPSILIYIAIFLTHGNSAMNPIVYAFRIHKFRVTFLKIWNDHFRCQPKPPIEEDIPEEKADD
# [10] = Fraction unbound in mouse plasma at 10 uM; format: ADME, cell-free
# [11] = target: T2, Adenosine receptor A2a; test: Displacement of [3H]2-[p-(2-carboxyethyl)phenylethylamino]-5-N-ethylcarboxamidoadenosine from human A2A adenosine receptor expressed in HEK293 cell membranes at 10 uM after 60 mins by scintillation proximity assay relative to adenosine 5-N-ethyluronamide
# [12] = species: Mus musculus; test: Selectivity index, ratio of Ki for mouse A3A adenosine receptor to Ki for mouse A1A adenosine receptor expressed in CHO cell membranes after 60 mins by scintillation proximity assay
# [13] = test system: Mus musculus; test: Induction of hypothermia in C57BL/6J mouse assessed as activity counts at 3 mg/kg, ip measured at 60 mins post dose (reference value: 15.5 +/- 5.5); format: functional
# [14] = Fraction unbound in rat plasma at 10 uM; format: ADME, cell-free
# [15] = Inhibition of rat benzodiazepine receptor
# [16] = target: T5, Adenosine receptor A3 (Mus musculus) (UniProt Q61618); test: Agonist activity at mouse A3AR adenosine receptor at 10 uM after 60 mins by [35S]GTPgammaS binding assay relative to (2S,3S,4R,5R)-5-(6-amino-9H-purin-9-yl)-N-ethyl-3,4-dihydroxytetrahydrofuran-2-carboxamide; format: functional
# T5 sequence (whole entry): T1 sequence (Q61618 whole entry)
# [17] = test system: Mus musculus; test: Induction of hypothermia in C57BL/6J mouse assessed as body temperature at 3 mg/kg, ip measured at 60 mins post dose (reference value: 36.3 +/- 0.8 degC); format: functional
# [18] = test system: Mus musculus; test: Induction of hypothermia in C57BL/6J mouse assessed as body temperature at […], icv measured after 10 hrs post dose; format: functional, organism-based
# [19] = Fraction unbound in human plasma at 10 uM; format: ADME, cell-free
# [20] = target: T6, Adenosine receptor A3 (Homo sapiens) (UniProt P0DMS8); test: Displacement of [125I]N6-(4-amino-3-iodobenzyl)adenosine-5-N-methyluronamide from human A3A adenosine receptor expressed in CHO cell membranes at 10 uM after 60 mins by scintillation proximity assay relative to adenosine 5-N-ethyluronamide
# T6 sequence (whole entry): T3 sequence (P0DMS8 whole entry)
# [21] = test system: Mus musculus; test: Induction of hypothermia in C57BL/6J mouse assessed as body temperature at […], icv measured up to 120 mins post dose; format: functional, organism-based
# Sequence of Sigma intracellular receptor 2 (Q5BJF2 whole entry): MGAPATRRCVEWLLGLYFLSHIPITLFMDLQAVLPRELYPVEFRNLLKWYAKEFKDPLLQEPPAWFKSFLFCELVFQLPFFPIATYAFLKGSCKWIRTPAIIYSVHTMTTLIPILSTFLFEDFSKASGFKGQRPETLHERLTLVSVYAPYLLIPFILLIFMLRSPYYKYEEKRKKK
# T2 sequence (P29274 whole entry): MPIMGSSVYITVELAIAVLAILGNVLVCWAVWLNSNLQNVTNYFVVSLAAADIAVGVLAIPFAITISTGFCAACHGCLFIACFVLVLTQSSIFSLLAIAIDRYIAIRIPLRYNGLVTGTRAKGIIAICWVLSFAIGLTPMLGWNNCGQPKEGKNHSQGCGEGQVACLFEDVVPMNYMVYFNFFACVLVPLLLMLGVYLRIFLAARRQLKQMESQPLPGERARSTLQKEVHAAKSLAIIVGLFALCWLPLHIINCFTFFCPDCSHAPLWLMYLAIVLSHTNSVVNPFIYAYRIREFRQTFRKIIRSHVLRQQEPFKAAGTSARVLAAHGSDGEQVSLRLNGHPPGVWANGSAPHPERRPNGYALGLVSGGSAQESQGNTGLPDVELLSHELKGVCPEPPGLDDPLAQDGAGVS
# Sequence of 5-hydroxytryptamine receptor 7 (P34969 whole entry): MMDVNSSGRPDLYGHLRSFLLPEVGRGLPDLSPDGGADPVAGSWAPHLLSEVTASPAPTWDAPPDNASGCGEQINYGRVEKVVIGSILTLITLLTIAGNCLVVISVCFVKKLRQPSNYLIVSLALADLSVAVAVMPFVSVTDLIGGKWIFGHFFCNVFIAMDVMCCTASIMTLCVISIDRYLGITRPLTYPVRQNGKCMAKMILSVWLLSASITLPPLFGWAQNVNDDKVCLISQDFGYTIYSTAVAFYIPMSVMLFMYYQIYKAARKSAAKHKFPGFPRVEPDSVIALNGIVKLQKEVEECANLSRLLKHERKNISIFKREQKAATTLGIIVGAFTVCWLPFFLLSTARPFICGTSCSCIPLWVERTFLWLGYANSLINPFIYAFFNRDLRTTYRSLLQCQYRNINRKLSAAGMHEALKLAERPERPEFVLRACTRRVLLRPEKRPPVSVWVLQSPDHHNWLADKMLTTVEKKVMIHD
# Sequence of Sigma non-opioid intracellular receptor 1 (Q99720 whole entry): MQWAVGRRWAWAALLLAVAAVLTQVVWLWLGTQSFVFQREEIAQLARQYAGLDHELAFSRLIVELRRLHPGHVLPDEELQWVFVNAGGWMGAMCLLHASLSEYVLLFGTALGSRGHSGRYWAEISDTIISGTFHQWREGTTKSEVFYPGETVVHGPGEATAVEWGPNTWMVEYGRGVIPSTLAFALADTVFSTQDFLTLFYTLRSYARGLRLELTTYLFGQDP
# Sequence of Histamine H1 receptor (P35367 whole entry): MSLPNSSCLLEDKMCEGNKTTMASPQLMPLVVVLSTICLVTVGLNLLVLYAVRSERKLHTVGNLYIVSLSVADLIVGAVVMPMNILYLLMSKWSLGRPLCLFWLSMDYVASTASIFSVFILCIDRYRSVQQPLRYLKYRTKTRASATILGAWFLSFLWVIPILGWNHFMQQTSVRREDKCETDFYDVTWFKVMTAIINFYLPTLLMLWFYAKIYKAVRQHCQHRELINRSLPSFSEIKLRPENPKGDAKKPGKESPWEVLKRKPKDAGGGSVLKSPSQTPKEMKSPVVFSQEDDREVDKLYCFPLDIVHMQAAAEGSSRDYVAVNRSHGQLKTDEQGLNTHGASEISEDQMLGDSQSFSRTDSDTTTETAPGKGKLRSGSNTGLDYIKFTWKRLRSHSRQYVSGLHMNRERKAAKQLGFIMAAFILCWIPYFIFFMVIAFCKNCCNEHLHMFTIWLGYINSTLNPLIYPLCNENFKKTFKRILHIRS
smiles,measurement,setting,value
Nc1ncnc2c1ncn2[C@@H]1O[C@H](C(=O)NC2CC2)[C@@H](O)[C@H]1O,pKi,[1],5.36
same,pKi,[2],5.10
O[C@@H]1[C@H](O)[C@@H](CCl)O[C@H]1n1cnc2c(N[C@H]3C[C@H]4CC[C@@H]3C4)ncnc21,pKi,[1],6.36
same,pKi,[3],5.81
same,pKi,[4],5.69
same,pKi,[5],6.45
same,pKi,[6],6.32
same,pKi,[7],5.91
OC[C@H]1O[C@@H](n2cnc3c(NC4CCCC4)ncnc32)[C@H](O)[C@@H]1O [N6-CYCLOPENTYLADENOSINE],T,[8],32.4 °C
OC[C@@]12C[C@@H]1[C@@H](n1cnc3c(NC(C4CCC4)C4CCC4)ncnc31)[C@H](O)[C@@H]2O,pKi,[1],6.12
same,Emax,[9],97%
same,Fu,[10],27.5%
same,inhibition,[11],34%
same,Ratio Ki,[12],1730
same,Activity,[13],18.1
same,Fu,[14],17.8%
same,pKi,[15],5.39
same,Emax,[16],92%
same,T,[17],36.2 °C
same,Activity,[18],Active
same,Fu,[19],14.6%
same,inhibition,[20],51%
same,Activity,[21],Active
